Data reported in patent publication US9631225B2, “Luciferase-based assays” (Promega Corporation, priority 2002, dated 2017).

Assays:
[1] = target: T1, firefly luciferase (QuantiLum® luciferase) (Photinus pyralis, UniProt P08659); assay: Protection of firefly luciferase reaction from inhibition by isoliquirtigenin (ILT); assay type: biochemical; details: ILT 100 μM
T1 construct: purchased Promega Corporation
Description: (§1) In this experiment, several tolerance enhancing agents were evaluated for their ability to protect luciferases from a known luciferase inhibitor, isoliquirtigenin (ILT) (100 μM, Sigma Chemical). ILT was added to luciferase reactions and the potential tolerance enhancing agents were evaluated for their ability to protect the luciferase from inhibition.
The basic firefly luciferase reactions contained 20 mM HEPES (Sigma Chemical) at pH 8.0, 6.4 mM Magnesium Sulfate (Fisher Scientific), 20 mM Dithiothreitol (City Chemical), 0.63 mM Coenzyme A (Pharmacia Biochemical), 0.4 mM EDTA (Sigma Chemical), 4.0 μM Luciferin (Promega Biosciences), 0.56 mM ATP (Pharmacia Biochemical), and 1.3×10^−6 mg/ml firefly luciferase (QuantiLum® luciferase, Promega Corporation).
(§2) ILT was solubilized at 100 mM in dimethyl sulfoxide (Sigma Chemical). ILT was diluted 1:1000 and the protectors were diluted into the reaction mix before the reaction was initiated by the addition of luciferase.
(§3) Reaction volume for each sample was 100 μl. Luminescence was integrated for 0.5 seconds per sample in a Turner Biosystems Veritas® luminometer immediately after luciferase was added to the reactions and the reactions were mixed. All measurements were done in triplicate.
(§4) The relative protection provided by each compound is calculated as difference between the luminescence generated in the presence and the absence of the protector divided by the total amount of inhibition as represented by the following equation: (L1−L2)/(L3−L4) wherein L1 represents luminescence with inhibitor and tolerance enhancing agent; L2 represents luminescence with inhibitor and no tolerance enhancing agent; L3 represents luminescence with no inhibitor and no tolerance enhancing agent; and L4 represents luminescence with inhibitor and no tolerance enhancing agent.
(§5) The relative protection in the presence of no tolerance enhancing agent, therefore, is 0% and in the absence of an inhibitor is 100%. The reactions used to generate luminescence in the absence of either inhibitor or tolerance enhancing agent still contained the solvent utilized to solubilize the inhibitor with which the reaction was to be compared.

[2] = target: T2, Renilla luciferase (Renilla reniformis, UniProt P27652); assay: Protection of Renilla luciferase reaction from inhibition by isoliquirtigenin (ILT); assay type: biochemical; details: ILT 100 μM
T2 construct: purchased ChemiCon Chemicals
T2 sequence (P27652 1-311): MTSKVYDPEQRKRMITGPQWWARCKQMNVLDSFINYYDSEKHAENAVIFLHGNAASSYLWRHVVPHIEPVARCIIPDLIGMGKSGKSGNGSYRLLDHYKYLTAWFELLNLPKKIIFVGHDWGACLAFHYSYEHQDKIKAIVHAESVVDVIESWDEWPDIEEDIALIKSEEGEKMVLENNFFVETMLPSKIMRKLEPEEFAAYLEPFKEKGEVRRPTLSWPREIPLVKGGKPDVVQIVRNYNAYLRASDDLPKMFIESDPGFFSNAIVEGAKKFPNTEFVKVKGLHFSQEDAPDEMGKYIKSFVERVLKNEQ
Description: as §1
The basic Renilla luciferase reactions contained 100 mM Potassium Phosphate buffer (Sigma Chemical) at pH 7.4, 500 mM Sodium Chloride (Fisher Scientific), 1.0 mM EDTA (Sigma Chemical), 200 nM Coelenterazine (Promega Biosciences), 0.1% Gelatin (Sigma Chemical) and 0.12 nmol/ml Renilla luciferase (ChemiCon Chemicals).
as §2, §3, §4, §5

[3] = protector reaction concentration 0.02%
[4] = protector reaction concentration 0.10%

T1 sequence (P08659 whole entry): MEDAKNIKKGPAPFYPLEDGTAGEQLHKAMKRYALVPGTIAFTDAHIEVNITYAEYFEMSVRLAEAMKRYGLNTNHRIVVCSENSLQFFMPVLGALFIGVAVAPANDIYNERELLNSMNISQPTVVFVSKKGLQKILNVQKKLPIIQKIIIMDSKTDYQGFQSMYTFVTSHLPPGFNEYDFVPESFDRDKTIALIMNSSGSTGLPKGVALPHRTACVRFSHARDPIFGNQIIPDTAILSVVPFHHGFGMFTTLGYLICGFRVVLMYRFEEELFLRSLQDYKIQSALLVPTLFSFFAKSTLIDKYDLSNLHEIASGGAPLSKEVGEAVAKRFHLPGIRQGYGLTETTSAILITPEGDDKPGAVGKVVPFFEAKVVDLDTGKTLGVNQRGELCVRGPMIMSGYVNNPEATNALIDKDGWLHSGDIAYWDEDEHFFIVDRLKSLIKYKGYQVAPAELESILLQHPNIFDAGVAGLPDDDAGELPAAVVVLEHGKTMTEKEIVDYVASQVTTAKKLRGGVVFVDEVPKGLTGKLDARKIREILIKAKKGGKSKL

Row | Compound | Relative Protection Against ILT [1, 3] [%] | Relative Protection Against ILT [2, 4] [%] | also measured
1 | C[C@H](CCC(=O)NCCC[N+](C)(C)CCCS(=O)(=O)[O-])[C@H]1CC[C@H]2[C@@H]3[C@H](O)C[C@@H]4C[C@H](O)CC[C@]4(C)[C@H]3C[C@H](O)[C@]12C [CHAPS® detergent, 3-([3-Cholamidopropyl]dimethylammonio)-1-propanesulfonate] | 18 | 14 | Relative Protection Against ILT [1, 4]: 57%; Relative Protection Against ILT ([2]; protector reaction concentration 0.50%): 97%
2 | CCCCCCCCCCCCCCCC[N+](C)(C)C.[Br-] [CTAB, cetyltrimethylammonium] | 100 | 95 | 
3 | OC[C@H]1O[C@@](CO)(O[C@H]2O[C@H](CO)[C@@H](O)[C@H](O)[C@H]2O)[C@@H](O)[C@@H]1O [Sucrose] |  |  | Relative Protection Against ILT ([1]; protector reaction concentration 0.5% (w:v)): 32%; Relative Protection Against ILT ([2]; protector reaction concentration 0.10% (w:v)): 24%
4 | OC[C@H]1O[C@@H]2O[C@H]3[C@H](O)[C@@H](O)[C@@H](O[C@H]4[C@H](O)[C@@H](O)[C@@H](O[C@H]5[C@H](O)[C@@H](O)[C@@H](O[C@H]6[C@H](O)[C@@H](O)[C@@H](O[C@H]7[C@H](O)[C@@H](O)[C@@H](O[C@H]1[C@H](O)[C@H]2O)O[C@@H]7CO)O[C@@H]6CO)O[C@@H]5CO)O[C@@H]4CO)O[C@@H]3CO [α-Cyclodextrin, α-Cyclodextrin (Cyclohexaamylose)] |  |  | Relative Protection Against ILT ([1]; protector reaction concentration 7 mM): 61%; Relative Protection Against ILT ([2]; protector reaction concentration 1.4 mM): 60%
5 | Deoxycholate | 81 | 72 | 
6 | nonylphenol polyethylene glycol ether (C9H19C6H—(OCH2CH2)9OH) [Tergitol NP-9® detergent] | 88 | 97 | 
